A word on the IC50: it is the concentration at which inhibition is half-maximal. A high value points to lower potency. As a reminder, the MIC is the smallest concentration in the dilution series that meets the test's criterion for growth inhibition. High values mean a less susceptible organism, low ones a more susceptible organism.

For test [1], the system named is Aspergillus niger. The test can be described thus: Antifungal activity against Aspergillus niger. Format: functional, organism-based.
The subject of test [2] is Cryptococcus neoformans. The test can be described thus: Antifungal activity against Cryptococcus neoformans. Format: functional, organism-based.
For test [3], the system named is Micrococcus luteus. Description: Antibacterial activity against Micrococcus luteus. The class given is functional.
The test system of test [4] is Escherichia coli. Description: Antibacterial activity against Escherichia coli. The class given is functional.
Test [5] has as its system Trichophyton mentagrophytes. The test can be described thus: Antifungal activity against Trichophyton mentagrophytes. The class given is functional, organism-based.
Test [6] relates to Bacillus subtilis. The test can be described thus: Antibacterial activity against Bacillus subtilis. Format: functional.
The subject of test [7] is Staphylococcus aureus. Description: Antibacterial activity against Staphylococcus aureus. Format: functional.
Test [8] deals with Candida albicans. Description: Antifungal activity against Candida albicans. Format: functional, organism-based.

Values after ≈ are worked out from the molar mass of the structure shown.

Consider `O=C(O)/C(Cc1cc(Br)c(OCCC[n+]2ccccc2)c(Br)c1)=N/O`, for which the IC50 was 32 µg/mL in test [1], more than 32 µg/mL in test [2], more than 32 µg/mL in test [5] and more than 32 µg/mL in test [8]. Moreover, the MIC in test [3], in test [4], in test [6] and in test [7] was more than 32 µg/mL in each case.
Regarding `NCCCOc1c(Br)cc(C/C(=N\O)C(=O)NCCC(=O)O)cc1Br`, the IC50 in test [1] is 32 µg/mL (≈ 66.5 µM); in test [2], 16 µg/mL (≈ 33.3 µM); in test [5] it was more than 32 µg/mL; in test [8] it was more than 32 µg/mL. For the same compound, the MIC in test [3], in test [4], in test [6] and in test [7] was more than 32 µg/mL each time.

For the origin of these results see ChEMBL document CHEMBL3632467, “Tyrokeradines G and H, new bromotyrosine alkaloids from an Okinawan Verongid sponge” (Bioorg Med Chem Lett, 2015).
